Experimental data reported in publication PMC13095408, “DBeQ derivative targets vacuolar protein sorting 4 functions in cancer cells and suppresses tumor growth in mice” (The Journal of Pharmacology and Experimental Therapeutics, 2025).

How the values were obtained:
[1] = test system: GFP-CHMP4B-expressing U2OS cells; assay: GFP-CHMP4B accumulation cell-based assay (high-content microscopy); conditions: for 4-107-induced GFP-CHMP4B accumulation on co-treatment: 100 nM BafA1 or 50 μM CQ with 2 μM 4-107, starved, 2 hours
Description: Plates were then scanned using the 20× objective for 1 hour with ≥100 cells/well across 6 fields/well. […] For all other assays, the cells were cultured overnight in black glass-bottom 96-well plates (Cellvis; P96-1.5H-N) then stained, rinsed, and treated with SM containing the indicated compounds (0.1% DMSO or 0.1% DMSO/0.1% ethanol [vehicle] final). Plates were scanned using the 20× NA .70 objective at the indicated intervals with ≥ 300 cells/well across 3 fields/well. […]

VPS4B = molecular target: T1, VPS4B (Homo sapiens, UniProt O75351); assay: VPS4B ATPase activity, EnzChek Phosphate assay; assay type: biochemical; parameters: His tag (pET28a vector-encoded) (N); made in house; host or cells: Escherichia coli BL21(DE3)
T1 sequence (O75351 1-444): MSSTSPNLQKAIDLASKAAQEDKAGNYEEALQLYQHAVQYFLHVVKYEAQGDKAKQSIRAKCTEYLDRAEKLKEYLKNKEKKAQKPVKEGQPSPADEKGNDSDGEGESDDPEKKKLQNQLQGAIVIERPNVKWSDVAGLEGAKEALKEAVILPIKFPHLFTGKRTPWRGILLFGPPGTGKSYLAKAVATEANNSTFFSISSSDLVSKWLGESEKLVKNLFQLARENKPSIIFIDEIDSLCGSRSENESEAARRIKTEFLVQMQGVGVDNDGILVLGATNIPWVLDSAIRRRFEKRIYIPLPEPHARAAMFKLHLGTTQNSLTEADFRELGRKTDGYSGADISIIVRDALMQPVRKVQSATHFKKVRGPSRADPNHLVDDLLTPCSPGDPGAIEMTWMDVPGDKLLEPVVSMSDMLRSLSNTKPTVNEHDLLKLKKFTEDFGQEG
Description: VPS4B and VCP ATPase activities were measured using the EnzChek Phosphate assay for the quantification of released phosphate. Assay buffers were based on literature precedents ([Cupido et al, 2019], [2021]) as follows: VPS4B buffer (20 mM HEPES-KOH, pH 7.4, 25 mM KOAc, 2 mM MgCl2, 5 mM (NH4)2SO4, 0.5 mM CaCl2, 2.5 mM DTT, 0.1 mg/mL BSA, 0.005% v/v Triton X-100), VCP buffer (20 mM HEPES-NaOH, pH 7.4, 20 mM NaCl, 10 mM MgCl2, 5 mM (NH4)2SO4, 0.5 mM CaCl2, 2.5 mM DTT, 0.1 mg/mL BSA, 0.005% v/v Triton X-100). In black clear-bottom 384-well plates, 22.5 μL of 5% DMSO or 40× test compounds diluted in the respective assay buffer was added to each well. ATPases were diluted to 1 μM in the respective buffers containing 2× EnzChek Phosphate assay coupling reagents of 400 μM MESG and 2 U of PNP, then 25 μL was added to each well. Plates were mixed at 1000 rpm for 30 minutes at RT while being protected from light. The reaction was initiated by adding 2.5 μL of 20 mM MgATP or water followed by mixing at 1200 rpm for 30 seconds at RT. Plates were measured at 360 nm using a CLARIOstar plate reader (BMG LABTECH) for 20 minutes at 37 °C. ATPase activity was calculated as the amount of phosphate released over a 5-minute interval under linear initial velocity conditions. The remaining ATPase activity was calculated by normalizing compound-treated activity values to the DMSO control. IC50 was calculated by fitting normalized values to a sigmoidal dose-response curve with Hill slope = −1 using Graph Pad Prism 10.0.
To identify VPS4i, we developed enzyme- and cell-based VPS4 functional assays to serve as VPS4i-screening platforms. For the enzyme-based assay, we used the colorimetric EnzChek Phosphate assay that detects free phosphate with the advantage of continuous measurement of ATP hydrolysis over time. […] Due to the high sequence and structural similarity of AAA-ATPases, we also established a VCP ATPase assay to evaluate hit selectivity. […] For the cell-based assay, our approach was based on how VPS4 inhibition causes the accumulation of ESCRT-III ([Babst et al, 1998]; [Katoh et al, 2003]). We used an N-terminal GFP-tagged CHMP4B reporter system because it is the most abundant ESCRT-III subunit ([Katoh et al, 2004]; [Teis et al, 2008]). Our aim was to test compounds under short-term serum and amino acid starvation to stimulate ESCRT activity for easier detection of inhibitors ([Takahashi et al, 2018], [2019]). […] Overall, we established 2 systems for VPS4i screening, a VPS4B ATPase activity assay and a GFP-CHMP4B accumulation cell-based assay.

[2] = screened at 1 µM, mean ± S.D., Supplemental Table 2
[3] = screened at 5 µM, mean ± S.D., Supplemental Table 2
[4] = screened at 1 μM, starvation media, 1 hour, foci intensity per cell normalized to 4-107, mean ± SD, Table 1
[5] = remaining ATPase activity, screened at 5 μM, mean ± SD, Table 1

VPS4B ATPase (% DMSO) (VPS4B; [3]) | VPS4B ATPase (% DMSO) (VPS4B; [5]) | SMILES | GFP-CHMP4B (% 4-107) [1, 2] | GFP-CHMP4B (% 4-107) [1, 4] | 4-107-induced GFP-CHMP4B accumulation on co-treatment [1]
45.77 ± 2.14 % DMSO | – | COc1cccc2c(NCCc3ccccc3)nc(N[C@H](C)c3ccc4ccccc4c3)nc12 [Compound 5-99] | 3.40 ± 1.02 % 4-107 | – | –
39.86 ± 1.36 % DMSO | – | COc1cccc2c(NCc3ccccc3)nc(NC(c3ccc(F)cc3)c3ccc(F)cc3)nc12 [Compound 7-13] | 12.60 ± 1.04 % 4-107 | – | –
– | – | Nc1cccc2c(NCc3ccccc3)nc(NCc3ccc(F)cc3)nc12 [Compound 7-69] | 20.04 ± 6.12 % 4-107 | – | –
93.04 ± 0.65 % DMSO | – | COc1cccc2c(NCc3ccccc3)nc(-n3ccc4ccc(C(=O)O)cc43)nc12 [Compound 5-39-iv] | 1.59 ± 0.93 % 4-107 | – | –
51.60 ± 0.35 % DMSO | – | COc1cccc2c(NCc3ccccc3)nc(Nc3ccc4scnc4c3)nc12 [Compound 5-67] | 1.60 ± 0.33 % 4-107 | – | –
91.51 ± 3.26 % DMSO | – | COc1ncnc2c1ccn2-c1nc(NCc2ccccc2)c2cccc(OC)c2n1 [Compound 5-51] | 2.51 ± 1.24 % 4-107 | – | –
28.5 ± 0.04 % DMSO | – | COc1cccc2c(NCc3ccc(Cl)cc3)nc(NCc3ccc(Cl)cc3)nc12 [Compound 5-07] | 14.56 ± 10.71 % 4-107 | – | –
– | – | COc1cccc2nc(NCc3ccccc3)nc(NCc3ccccc3)c12 [Compound 7-27] | 19.55 ± 2.22 % 4-107 | – | –
37.77 ± 2.37 % DMSO | – | COc1cccc2c(NCc3ccccc3)nc(NC(c3ccccc3)c3ccccc3)nc12 [Compound 7-23] | 23.20 ± 6.42 % 4-107 | – | –
56.25 ± 2.23 % DMSO | – | COc1cccc2c(NCc3ccccc3)nc(NCc3nc4ccccc4s3)nc12 [Compound 5-105] | 1.30 ± 1.20 % 4-107 | – | –
– | – | COc1ccc2c(Nc3ccccc3)nc(Cl)nc2c1 [Compound 7-41] | 17.93 ± 2.08 % 4-107 | – | –
41.71 ± 2.35 % DMSO | – | COc1cccc2c(NCCc3ccccc3)nc(NCc3ccccc3)nc12 [Compound 5-73] | 5.34 ± 1.17 % 4-107 | – | –
93.20 ± 1.22 % DMSO | – | COc1cccc2c(NCc3ccc(C(F)(F)F)cc3)nc(-n3ccc4cncnc43)nc12 [Compound 5-55] | 2.25 ± 0.55 % 4-107 | – | –
49.73 ± 0.04 % DMSO | – | COc1cccc2c(NCCc3ccccc3)nc(N[C@@H](C)c3ccc4ccccc4c3)nc12 [Compound 5-97] | 1.82 ± 0.02 % 4-107 | – | –
– | – | COc1cccc2c(NCc3ccccc3)nc(Cl)nc12 [Compound 4-95] | 1.76 ± 0.74 % 4-107 | – | –
82.46 ± 1.64 % DMSO | – | COc1cccc2c(NCc3ccncc3)nc(NCc3ccncc3)nc12 [Compound 5-11] | 1.10 ± 0.76 % 4-107 | – | –
45.60 ± 2.79 % DMSO | – | COc1cccc2c(NCc3ccccc3)nc(N[C@H](C)c3cccc4ccccc34)nc12 [Compound 5-103] | 4.36 ± 1.56 % 4-107 | – | –
30.96 ± 1.37 % DMSO | – | COc1cccc2c(NCCc3ccccc3)nc(NCCc3ccccc3)nc12 [Compound 5-03] | 2.31 ± 1.75 % 4-107 | – | –

VPS4B ATPase (% DMSO) (VPS4B; [3]) | VPS4B ATPase (% DMSO) (VPS4B; [5]) | SMILES | GFP-CHMP4B (% 4-107) [1, 2] | GFP-CHMP4B (% 4-107) [1, 4] | 4-107-induced GFP-CHMP4B accumulation on co-treatment [1]
53.27 ± 1.65 % DMSO | – | COc1ccc2cccc(Nc3nc(NCc4ccccc4)c4cccc(OC)c4n3)c2c1 [Compound 5-119] | 2.49 ± 0.70 % 4-107 | – | –
51.27 ± 1.54 % DMSO | – | COc1cccc2c(NCc3ccccc3)nc(Nc3ccc4ncsc4c3)nc12 [Compound 5-69] | 2.10 ± 1.22 % 4-107 | – | –
86.66 ± 2.70 % DMSO | – | COC(=O)c1cccc2c1ccn2-c1nc(NCc2ccccc2)c2cccc(OC)c2n1 [Compound 5-135] | 4.63 ± 2.05 % 4-107 | – | –
46.68 ± 2.80 % DMSO | – | COc1cccc2c(NCc3ccccc3)nc(N[C@H](C)c3ccccc3)nc12 [Compound 5-89] | 9.13 ± 2.82 % 4-107 | – | –
– | – | COc1cccc2c(Nc3ccccc3)nc(NCc3ccccc3)nc12 [Compound 7-75] | 11.57 ± 12.42 % 4-107 | – | –
86.08 ± 7.25 % DMSO | – | COc1cccc2c(NCc3ccc(S(N)(=O)=O)cc3)nc(Cl)nc12 [Compound 5-17] | 2.87 ± 0.27 % 4-107 | – | –
42.87 ± 1.98 % DMSO | – | COc1cccc2c(NCc3ccccc3)nc(N[C@H](C)c3ccc4ccccc4c3)nc12 [Compound 5-95] | 2.43 ± 1.04 % 4-107 | – | –
86.38 ± 2.37 % DMSO | 86.38 ± 2.37 % DMSO | O=[N+]([O-])c1cccc2c(NCc3ccccc3)nc(NCc3ccccc3)nc12 [Compound 5] | 15.05 ± 0.55 % 4-107 | 15.05 ± 0.55 % 4-107 | –
– | – | CCN(CC)CCCC(C)Nc1ccnc2cc(Cl)ccc12 (stereo not shown) [CQ, chloroquine diphosphate, reference compound] | – | – | blocked
30.39 ± 0.43 % DMSO | 30.39 ± 0.43 % DMSO | COc1cccc2c(NCc3ccccc3)nc(NCc3ccc4ccccc4c3)nc12 [Compound 12] | 10.42 ± 6.42 % 4-107 | 10.42 ± 6.42 % 4-107 | –
93.98 ± 3.83 % DMSO | – | COc1ncnc2c1ccn2-c1nc(NCc2ccc(C(F)(F)F)cc2)c2cccc(OC)c2n1 [Compound 5-57] | 2.44 ± 0.81 % 4-107 | – | –
25.77 ± 2.48 % DMSO | – | COc1cccc2c(NCc3cccc(OC(F)(F)F)c3)nc(NCc3ccccc3)nc12.Cl [Compound 5-33-iv] | 5.27 ± 1.53 % 4-107 | – | –
– | – | COc1ccc(CNc2nc(NCc3ccccc3)c3cccc(N)c3n2)cc1 [Compound 7-65] | 17.36 ± 5.75 % 4-107 | – | –
– | – | Nc1cccc2c(NCc3ccccc3)nc(NCc3cccc(F)c3)nc12 [Compound 7-77] | 26.24 ± 20.18 % 4-107 | – | –
– | – | Fc1ccc2nc(NCc3ccccc3)nc(NCc3ccccc3)c2c1 [Compound 5-143] | 11.12 ± 2.40 % 4-107 | – | –
– | – | CO/C1=C\C(C)=C\[C@@H](C)[C@@H](O)[C@@H](C)C/C(C)=C/C=C/[C@H](OC)[C@@H]([C@@H](C)[C@@H](O)[C@H](C)[C@@]2(O)C[C@@H](O)[C@H](C)[C@@H](C(C)C)O2)OC1=O [BafA1, bafilomycin A1, reference compound] | – | – | blocked
– | – | COc1ccc2c(Nc3ccccc3)nc(NCc3ccccc3)nc2c1 [Compound 7-45] | 24.94 ± 5.94 % 4-107 | – | –
– | – | COC(=O)c1ccc2c(ccn2-c2nc(NCc3ccc(S(N)(=O)=O)cc3)c3cccc(OC)c3n2)c1 [Compound 5-47] | 1.41 ± 0.61 % 4-107 | – | –
